Values joined by “and” are separate entries in the source; they are usually repeats but may differ in a detail not shown here. Equal entries are not always repeated.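 A five-concentration, 48-hour dose response in 96-well plates underlies each endpoint, interpolated linearly between surrounding concentrations. GI50: concentration for 50% inhibition of growth. The concentration for full growth arrest is given as TGI.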
How the values were obtained:
Experiment in all cases: DTP human tumour cell line panel, 48 h
[1] = tested on: HOP-18 NSCLC
[2] = tested on: LXFL 529 NSCLC
[3] = tested on: DLD-1 colon
[4] = tested on: COLO 205 colon
[5] = tested on: M19-MEL melanoma
[6] = tested on: T-47D breast
[7] = tested on: HS 578T breast
[8] = tested on: XF 498 CNS
[9] = tested on: MCF7 breast
[10] = tested on: MDA-MB-231 breast

Row | Compound | TGI [1] | TGI [2] | TGI [3] | TGI [4] | TGI [5] | TGI [6] | TGI [7] | TGI [8] | TGI [9] | TGI [10] | other results
1 | Cc1ccc(S(=O)(=O)N/N=C2\CCCCC23CCC(=O)NC3)cc1 (centres undefined) | > 100 µM | > 100 µM | > 100 µM | > 100 µM | > 100 µM | – | – | – | – | – | –
2 | CNC(=O)OCc1nc(SSC(C)(C)C)n(C)c1COC(=O)NC | 10.8 µM | 2.74 µM | 3.18 µM | 3.28 µM | 13.6 µM | 7.4 µM | 7.9 µM | 5.47 µM | 15.5 µM | 6.95 µM | –
3 | CCCC1(CC(=O)O)OCCc2c1[nH]c1ccccc21 (centres undefined) | > 100 µM | > 100 µM | > 100 µM | > 100 µM | > 100 µM | – | – | > 100 µM | – | – | –
4 | Oc1ccc2ccccc2c1N=Nc1cccc2ccccc12 | – | – | – | > 100 µM | – | > 100 µM | > 100 µM and 77.7 µM | – | > 100 µM | > 100 µM | –
5 | CCCCCCCCCCCC(=O)OCCOCCOCCOCCOCCOC(=O)CCCCCCCCCCC | > 100 µM | > 100 µM | > 100 µM | > 100 µM | > 100 µM | – | – | – | – | – | –
6 | COc1ccc(NC(=O)CC/C(CC(=O)c2ccco2)=N/NC(=O)C(N)=O)cc1 | > 100 µM | > 100 µM | > 100 µM | > 100 µM | > 100 µM | – | – | > 100 µM | – | – | –
7 | CC1(O)C(C)(O)C2(C)O[Te]3(OC12C)OC1(C)C(C)(O)C(C)(O)C1(C)O3 (centres undefined) | – | 31.4 µM | > 100 µM | > 100 µM | 70.8 µM | – | – | > 100 µM | – | – | –
8 | O=C(Nc1ccc(Cl)cc1)C1C(=O)C(=O)N(c2ccc(Cl)cc2)C1=O (centres undefined) | > 100 µM | > 100 µM | > 100 µM | > 100 µM | > 100 µM | – | – | > 100 µM | – | – | –
9 | CC(C)(C)c1cc([N+](=O)[O-])cc([N+](=O)[O-])c1O | – | – | – | > 10 µM | – | > 10 µM | > 10 µM | – | > 10 µM | > 10 µM | –
10 | COc1cc(C=O)c(-c2c(C=O)ccc3c2OCO3)c(OC)c1OC | > 100 µM | > 100 µM | > 100 µM | > 100 µM | > 100 µM | – | – | – | – | – | –
11 | Cc1ccc(C2=C(c3ccc(C)cc3)C3(c4ccc(C)cc4)C4C(=O)OC(=O)C4C2(c2ccc(C)cc2)S3=O)cc1 (centres undefined) | – | – | – | > 100 µM | – | > 100 µM | > 100 µM | – | > 100 µM | 45.6 µM | GI50 [6]: > 100 µM; GI50 [7]: 21.3 µM; GI50 [4]: 51.2 µM; GI50 [9]: 29.2 µM; GI50 [10]: 15.6 µM
12 | N#CCC(=O)N/N=C1/C(=O)N(c2ccc(Cl)cc2)C(=O)C(=O)C1c1nc2ccccc2s1 (centres undefined) | – | > 100 µM | > 100 µM | > 100 µM | > 100 µM | – | – | > 100 µM | – | – | –
13 | Cc1ccc(S(=O)(=O)N=Nc2c(O)[nH]c3cc(O)c(C(=O)O)cc23)cc1 | – | – | – | > 100 µM | – | > 100 µM | > 100 µM | – | > 100 µM | > 100 µM | –
14 | O=C1N/C(=C\[N+](=O)[O-])c2ccccc21 | > 100 µM | > 100 µM | > 100 µM | > 100 µM | > 100 µM | – | – | – | – | – | –
15 | O=C(Nc1cccc(O)c1)C(=O)C1C(=O)NC(=S)NC1=O | > 100 µM | > 100 µM | > 100 µM | > 100 µM | > 100 µM | – | – | > 100 µM | – | – | –
16 | CCOC(=O)[CH-]C(=O)C12CC3CC(CC(C3)C1)C2.CCOC(=O)[CH-]C(=O)C12CC3CC(CC(C3)C1)C2.CC[O-].CC[O-].[Ti+4] | > 100 µM | > 100 µM | > 100 µM | > 100 µM | > 100 µM | – | – | – | – | – | GI50 [1]: > 100 µM; GI50 [2]: > 100 µM; GI50 [3]: > 100 µM; GI50 [4]: > 100 µM; GI50 [5]: > 100 µM
17 | Cc1ccc(S(=O)(=O)OC2CC=CC2)cc1 | > 100 µM | > 100 µM | > 100 µM | > 100 µM | > 100 µM | – | – | > 100 µM | – | – | –
18 | Cn1c(Cl)c(/C=C2/C(=O)Nc3ccccc32)c2ccccc21 | – | – | – | 6.64 µM | – | 23.9 µM | 2.03 µM | – | – | 12.7 µM | GI50 [6]: 0.724 µM; GI50 [7]: 0.248 µM; GI50 [4]: 0.705 µM; GI50 [9]: 0.198 µM; GI50 [10]: 0.588 µM
19 | O=C1C=C(Nc2ccccc2C(=O)CC(=O)C(=O)Nc2cccc([N+](=O)[O-])c2)c2ccccc2C1=O | – | > 100 µM | > 100 µM | > 100 µM | 19.3 µM | – | – | 53.8 µM | – | – | –
20 | CN(C)CCOc1ccc([N+](=O)[O-])c2cccnc12 | – | – | – | > 100 µM | – | > 100 µM | > 100 µM | – | > 100 µM | > 100 µM | –
21 | Cc1cn(-c2cc(NC(=O)c3cccc(C#Cc4cccc5[nH]nc(N)c45)c3)cc(C(F)(F)F)c2)cn1 | – | – | – | 15.8 µM | – | 18.5 µM | 42.2 µM | – | > 100 µM | 16.7 µM | GI50 [6]: 3.39 µM; GI50 [7]: 2.86 µM; GI50 [4]: 2.45 µM; GI50 [9]: 3.6 µM; GI50 [10]: 2.35 µM

From PubChem BioAssay (NCI)
